Each block holds one compound with its values, some of them ahead of it.
Legend:
Format in all cases: physicochemical
[1] = Mass loss of PCDS diffuser with isopropyl myristate as solvent; conditions: 2% F3 in isopropyl myristate, 170 grams, over 14 days
Procedure: The first step in solvent validation consists in preparing a device comprising a glass bottle containing a 2% solution of a known pheromone (feline facial pheromone F3) in isopropyl myristate (also termed Myristic acid isopropyl ester, IUPAC name Propan-2-yl tetradecanoate). The initial weight of solution placed in the bottle is 170 grams. Monitoring is carried out over 14 days, with weighing at DO, D7 and D14.

[2] = DAP PCDS direct diffusion (SPME-GC/MS); conditions: DAP/PCDS diffuser, 40 mL, 6 capillaries
Procedure: Three diffusers, each containing 40 mL of solution and 6 capillaries, were prepared and diffused. The first points were measured at T=1d, T=2, and T=3d, then every Monday, Wednesday and Friday of each study week until the diffusers no longer contained any solution. To measure the pheromone released into the air at each study time, the diffuser is first weighed (with the sticks) to measure mass loss, then placed in an enclosed area (in this case, an upside-down aquarium) containing a SPME fiber, as shown in FIG. 24.
The fiber is left to diffuse above the diffuser for 2 hours (a time determined in a previous method development as the optimum time for molecules to adsorb to the phase), then analyzed using the gas chromatography/mass spectrometry (GC/MS) technique.
Three diffusers were studied for greater accuracy. The chromatograms obtained are reprocessed using GC/MS Solution software.
For each chromatographic peak, the area is recorded using GC/MS Solution software, then entered into an Excel spreadsheet. Diffusion curves giving the area of the chromatographic peak corresponding to each active ingredient as a function of time are then plotted.
Analyses were carried out by gas chromatography/mass spectrometry (GC/MS). The instrument was a Shimadzu GCMS QP2010SE® equipped with an AOC 6000® autosampler. Separation was carried out on a ZB-FFAP® column (30 m×0.25 mm×0.25 μm, stationary phase: nitroterephthalic acid-modified polyethylene glycol) supplied by Phenomenex. The furnace temperature was initially set at 80° C. for 1 minute, then increased at 10° C./min to 240° C. and maintained at this temperature for 2 minutes. The carrier gas was helium at a flow rate of 1 mL/min. Analysis time is 19 minutes.
The injector is a split/splitless injector used in split mode (temperature: 250° C., split: 50:1). The SPME fiber was injected directly into the injector and left to desorb for 15 minutes.
The separated molecules were detected using a mass spectrometer equipped with an electron impact source (temperature: 200° C.). The analyzer is a simple quadrupole. The interface temperature is 250° C. Data were acquired in FASST mode (Fast automated SCAN/SIM type), i.e. part of the analysis was performed by scanning all ions (SCAN) and part by selecting specific ions (SIM). Target molecules were thus analyzed using ion selection.

[3] = Ratios of molecules diffused through the sticks over time
Procedure: Furthermore, as small molecules diffuse more, it happens that they lose intensity over the course of the study, so the ratios are different 24 hours after immersing the sticks in the liquid and 21 days later. Here are the ratios for each pheromone studied at the start of the study and at the end.

[4] = F3P PCDS indirect diffusion, pheromone remaining in solution (GC/FID)
Procedure: For this study, three diffusers each containing 40 mL of product and 6 capillaries were prepared and diffused. Once a week, on Wednesdays, the amount of pheromone remaining in the solution was monitored by gas chromatography analysis coupled to a flame ionization detector (GC/FID) until no liquid remained. The percentage of pheromone was measured weekly.
Next, the percentage of pheromone was checked by external calibration using a GC/FID calibration range.
Analyses were carried out by gas chromatography coupled to a flame ionization detector. The instrument was a Shimadzu GC 2025® with an AOC20i® autosampler. Separation was performed on an Agilent DB-FFAP® column (30 m×0.25 mm×0.25 μm, stationary phase: nitroterephthalic acid-modified polyethylene glycol). The temperature of the gas chromatography oven was initially maintained at 140° C. for 2 minutes, then increased at 10° C./min to 250° C. and left at this temperature for 3 minutes. The carrier gas was helium at 1 mL/min. Analyses were performed in split mode using a split/splitless injector (temperature: 250° C., split: 1:50).
The detector used was a flame ionization detector. The detector temperature was 250° C. with an air flow rate of 400 mL/min, hydrogen 40 mL/min and nitrogen 30 mL/min.
For this purpose, a calibration range was prepared for each analysis. […]

[5] = DAP quantification at the top of the capillaries (GC/FID); conditions: top of the rods
Procedure: For this study, three diffusers containing 40 mL of solution and 6 capillaries were used for diffusion. Each week, a diffuser was weighed and the pheromone contained in the liquid solution and on the top of the capillaries was quantified by gas chromatography with flame ionization detector (GC/FID). To quantify the pheromone at the top of the capillaries, approximately 1 cm of the top of the capillaries is cut off with scissors and 0.1 g of the capillary tops is placed in a 25 mL volumetric flask. Acetone is then added up to the beginning of the neck, and the flask is placed in an ultrasonic bath for one hour. Acetone is then topped up to volume, and an aliquot of solution is taken and filtered through a syringe filter for GC/FID analysis. DAP is then quantified by external calibration. For this, five solutions with concentrations ranging from 50% to 150% of the target value (100% being the target value) are prepared to cover a wide concentration range (protocol for preparing the standard range not shown but available). Analyses were carried out using gas chromatography with a flame ionization detector. The instrument was a Shimadzu GC 2025AF® equipped with an AOC20i® autosampler. Separation was carried out on a DB-WAX UI® column (20 m×0.18 mm×0.30 μm, polyethylene glycol (PEG) stationary phase) supplied by Agilent. The oven temperature was initially set at 90° C. and held for 2 minutes, then increased at 20° C./min to 160° C. and held at this temperature for 5 minutes. Finally, the temperature was increased at 20° C./min to 220° C. and held at this temperature for 5 minutes. The carrier gas is helium at a flow rate of 1 mL/min. Analysis time was thus 18.5 minutes. The injector is a split/splitless injector used in split mode (temperature: 230° C., split: 50:1, injected quantity: 1 μL). The detector is a flame ionization detector (FID). Its temperature is 240° C., the hydrogen flow rate is 40 mL/min and the air flow rate is 400 mL/min. A cleaning gas, dinitrogen, is also present at a flow rate of 30 mL/min.

[6] = Direct diffusion of diffuser blocks (SPME GC/MS); conditions: despecified pheromone 2%, 4 weeks
Procedure: Analyses were carried out using gas chromatography (GC) coupled to a mass spectrometer (MS) detector, a technique commonly referred to as GCMS. The molecules of interest were extracted using the Solid Phase Micro-Extraction (SPME) technique. The instrument used was the following: QP2010SE® from Shimadzu (See FIG. 4).
AOC 6000® automatic feeder • Extraction/SPME fiber: polyacrylate/Fused silica (85 μm), 23 Ga. • Adsorption time: 2 hours (exposure time of fiber above block) (See FIG. 4) • Desorption time: 30 minutes (fiber exposure time in injector) • Fiber-block distance: 2 cm • Injection: split/splitless injector • Temperature: 250° C., split 50 mode. • Separation: ZB-FFAP® column (Phénomenex), length: 30 m, diameter: 250 μm, film thickness: […]
• Carrier gas: Helium (He) • Analysis time: 18 min (not including time to return to equilibrium between each analysis injection • Detection: mass spectrometer with electron impact source/analyzer: quadrupole. • Source temperature: 200° C. • Interface temperature: 250° C. • Scan m/z 50 to m/z 500 • SIM with ions 55, 66 and 74.
Analyses were carried out in triplicate to verify reproducibility of results.
With the SPME method, results are evaluated by measuring the chromatographic peak area. The data have been plotted on diffusion curve (see FIGS. 5 and 6).

[7] = Direct diffusion of rod diffuser (SPME GC/MS); conditions: despecified pheromone 2%
Procedure: This is exactly the same analytical method used for the diffuser block study. The study setup is shown below, also with a two-hour adsorption time-See FIG. 12 showing the set-up. Because of the height of the passive diffusion device, the fiber mounting bracket will not be the same for the block and for the rod device. The distance between the fiber and the device is 10 cm. With the SPME method, results are evaluated by measuring the chromatographic peak area. The data have been plotted to produce a diffusion curve.

[8] = Indirect assay of rod diffuser solution (GC/FID); conditions: stick diffuser solution, despecified pheromone
Procedure: Solution integrity was checked at each analysis time. Before each indirect assay, the vial was weighed to visualize mass loss over time. Each vial contained six sticks. • Specifications: the solution must lose mass over time. • Result: Compliant—See FIG. 9 This is the same analytical method as for the diffuser block study, only the sample preparation differs. 1.25 g of solution were weighed into a 25 mL volumetric flask and the volume made up to the mark with acetone. The resulting solution is transferred to a 1.5 mL GC vial for analysis. This is exactly the same calibration range as for the diffuser block study.

[9] = Pheromone migrated to the stick tips (GC/FID); conditions: on stick tips, despecified pheromone
Procedure: In the course of this study, we also measured the amount of pheromone migrating on the sticks, to check that the pheromone had migrated to the top of the sticks, helping it to diffuse into the air. To do this, the test is the same as for the diffuser blocks: 2.5 g of stick tips are cut off and placed in a 50 mL flask, which is then placed in an ultrasonic bath for one hour. The resulting solution is filtered (to avoid injecting particles into the instrument) and placed in a chromatographic vial for analysis.

[10] = Indirect assay of diffuser blocks (GC/FID, pheromone remaining in the block); conditions: despecified pheromone
Procedure: Analyses were carried out using the gas chromatography (GC) technique with a flame ionization detector (FID), commonly known as GC/FID. The instrument used was the Shimadzu GC2025.® • Injection: Quantity injected: 1 μL, split 50:1, temperature: 230° C. • Separation: DB-WAX column (Agilent), length: 20 m, diameter: 180 μm, film thickness: […] • Carrier gas: Helium (He) • Analysis time: 11.50 min (not including time to return to equilibrium between each analysis) injection). • Detection: FID, temperature: 250° C., flow rates: H2: 40 mL/min, Air: 400 mL/min, Nitrogen (make-up): 30 mL/min. To obtain a representative sample, “cores” were drilled at various positions in the block and then collected. 2.5 g of gel were weighed into a 50 mL volumetric flask and the volume made up to the beginning of the neck of the flask with acetone. The flask was then placed in an ultrasonic bath for one hour until the block was dissolved (a white precipitate was obtained), then acetone was added to the mark. An aliquot of this solution was placed in a syringe fitted with a syringe filter and filtered to obtain a translucent solution. The resulting solution was transferred to a 1.5 mL GC vial for analysis. The assays were carried out using a calibration range.

[11] = DAP, 24 h after immersion of sticks
[12] = DAP, 21 days after immersion of sticks (empty tank)
[13] = F3P, 24 h after immersion of the sticks
[14] = F3P, 21 days after immersion of sticks (empty tank)

mass loss of the PCDS diffuser [1]: virtually non-existent
Structure (SMILES): CCCCCCCCCCCCCC(=O)OC(C)C [isopropyl myristate, Propan-2-yl tetradecanoate]

direct diffusion over time [2]: decreases slightly over time
ratio of molecules diffused through the sticks [3, 11]: 51 % (w/w)
ratio of molecules diffused through the sticks [3, 12]: 37 % (w/w)
ratio of molecules diffused through the sticks [3, 13]: 20 % (w/w)
ratio of molecules diffused through the sticks [3, 14]: 17.5 % (w/w)
quantities found in the solution [4]: very low
Proportion of methyl laurate in the DAP pheromone ([5]; T = 6 j (instead of 2%)): laurate: 1.2%
Proportion of methyl laurate in the DAP pheromone ([5]; T = 22 j (instead of 2%)): laurate: 0.4%
Proportion of methyl laurate in the DAP pheromone ([5]; T = 13 d (instead of 2%)): laurate: 0.5%
Structure (SMILES): CCCCCCCCCCCC(=O)OC [methyl laurate, methyl dodecanoate]

direct diffusion from the diffuser block [6]: diffuse better
direct diffusion over time [2]: stable over time
ratio of molecules diffused through the sticks [3, 11]: 27 % (w/w)
ratio of molecules diffused through the sticks [3, 12]: 33.5 % (w/w)
ratio of molecules diffused through the sticks ([3]; Despecified pheromone (Core), 5 days after immersion of the sticks): 76 % (w/w)
ratio of molecules diffused through the sticks ([3]; Despecified pheromone (Core), 21 days after immersion of sticks (empty tank)): 70 % (w/w)
ratio of molecules diffused through the sticks [3, 13]: 4 % (w/w)
ratio of molecules diffused through the sticks [3, 14]: 8.7 % (w/w)
% of the active ingredient in the pheromone ([8]; day 0): 11.9%
% of the active ingredient in the pheromone ([8]; day 7): 11.9%
% of the active ingredient in the pheromone ([8]; day 14): 11.9%
% of the active ingredient in the pheromone ([8]; day 21): 11.4%
% of the active ingredient in the pheromone ([9]; day 7): 9.2%
% of the active ingredient in the pheromone ([9]; day 14): 8.2%
% of the active ingredient in the pheromone ([9]; day 21): 6.4%
% of the active ingredient in the pheromone ([10]; day 0): 12%
% of the active ingredient in the pheromone ([10]; day 7): 11.9%
% of the active ingredient in the pheromone ([10]; day 14): 11.9%
% of the active ingredient in the pheromone ([10]; day 21): 11.7%
% of the active ingredient in the pheromone ([10]; day 28): 11.7%
Structure (SMILES): CCCCCCCCCCCCCC(=O)OC [methyl myristate, methyl tetradecanoate]
direct diffusion, rod system compared with diffuser block [7]: better in the blocks than in the rod system

— patent US20250248393A1, “METHOD OF RELEASING A SEMIOCHEMICAL IN THE ENVIRONEMENT BY PASSIVE DIFFUSION, SYSTEM AND MEANS, ESPECIALLY STICKS, TO THIS END, AND USES THEREOF” (SIGNS, priority 2024, published 2025)
